Experimental data from PubChem BioAssay (NCI).
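Step 1: Grow cells in 96-well plates. Step 2: Expose to compound for 48 hours at 5 concentrations. Step 3: Interpolate endpoints linearly; if unreached, use highest concentration. The concentration for full growth arrest is given as TGI.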

Assays:
Assay in all cases: NCI-60 cell line screen, 48 h
[1] = test system: SW-620 colon
[2] = test system: DU-145 prostate
[3] = test system: LOX IMVI melanoma
[4] = test system: OVCAR-8 ovarian
[5] = test system: TK-10 renal
[6] = test system: SK-OV-3 ovarian
[7] = test system: T-47D breast
[8] = test system: U251 CNS
[9] = test system: 786-0 renal
[10] = test system: MDA-MB-231 breast
[11] = test system: UO-31 renal
[12] = test system: HCT-116 colon
[13] = test system: KM12 colon
[14] = test system: EKVX NSCLC
[15] = test system: PC-3 prostate
[16] = test system: RPMI-8226 leukemia
[17] = test system: NCI-H23 lung
[18] = test system: UACC-257 melanoma
[19] = test system: ACHN renal
[20] = test system: MDA-N
[21] = test system: SNB-19 CNS
[22] = test system: OVCAR-4 ovarian
[23] = test system: SF-539 CNS
[24] = test system: NCI-H226 lung
[25] = test system: HOP-92 NSCLC
[26] = test system: NCI-H460 lung
[27] = test system: UACC-62 melanoma
[28] = test system: A498 renal
[29] = test system: MCF7 breast
[30] = test system: NCI/ADR-RES ovarian
[31] = test system: OVCAR-3 ovarian
[32] = test system: SF-295 CNS
[33] = test system: MALME-3M melanoma
[34] = test system: A549 NSCLC
[35] = test system: MDA-MB-435
[36] = test system: SK-MEL-2 melanoma
[37] = test system: BT-549 breast
[38] = test system: SR leukemia
[39] = test system: HL-60(TB) leukemia
[40] = test system: HCT-15 colon
[41] = test system: OVCAR-5 ovarian
[42] = test system: MOLT-4 leukemia
[43] = test system: HOP-62 NSCLC
[44] = test system: CAKI-1 renal
[45] = test system: HS 578T breast
[46] = test system: COLO 205 colon
[47] = test system: NCI-H522 lung
[48] = test system: SK-MEL-28 melanoma
[49] = test system: HT29 colon
[50] = test system: SK-MEL-5 melanoma
[51] = test system: SF-268 CNS
[52] = test system: IGROV1 ovarian
[53] = test system: HCC-2998 colon
[54] = test system: M14 melanoma
[55] = test system: CCRF-CEM leukemia
[56] = test system: SN12C renal
[57] = test system: K-562 leukemia
[58] = test system: SNB-75 CNS
[59] = test system: RXF 393 renal

`CC(CCOc1ccc2ccc(=O)oc2c1)C1=CC(=O)C(C)(C)O1` (stereo not given) was tested, and the TGI [1] was 4.93 µM, the TGI [2] was 12.5 µM and the TGI [3] was > 100 µM. The TGI [4] was 4.45 µM, the TGI [5] was 13.3 µM and the TGI [6] was 14.2 µM. It also gave a TGI [7] of 6.06 µM, a TGI [8] of 10.3 µM and a TGI [9] of 7.69 µM. The TGI [10] was 12.5 µM, the TGI [11] was 12.1 µM and the TGI [12] was 10 µM. For the same compound, the TGI [13] was 7.41 µM, the TGI [14] was 15.1 µM and the TGI [15] was 23.5 µM. The TGI [16] was 7.31 µM, the TGI [17] was 11.9 µM and the TGI [18] was 20.6 µM. The TGI [19] was 12.4 µM, the TGI [20] was 16.4 µM and the TGI [21] was 18.2 µM. The TGI [22] was 22.5 µM, the TGI [23] was 4.37 µM and the TGI [24] was 22.5 µM. It also gave a TGI [25] of 13.2 µM, a TGI [26] of 3.94 µM and a TGI [27] of 14.9 µM. It also gave a TGI [28] of 5.52 µM, a TGI [29] of 14.7 µM and a TGI [30] of 5.62 µM. For the same compound, the TGI [31] was 11.6 µM, the TGI [32] was 14.3 µM and the TGI [33] was 10.8 µM. It also gave a TGI [34] of 10.6 µM, a TGI [35] of 11.5 µM and a TGI [36] of 26.3 µM. The TGI [37] was 11 µM, the TGI [38] was 3.42 µM and the TGI [39] was 5.31 µM. For the same compound, the TGI [40] was 5.68 µM, the TGI [41] was 49.9 µM and the TGI [42] was 6.37 µM. The TGI [43] was 21.3 µM, the TGI [44] was 8.75 µM and the TGI [45] was 6.84 µM. It also gave a TGI [46] of 5.97 µM, a TGI [47] of 3.11 µM and a TGI [48] of 12.2 µM. For the same compound, the TGI [49] was 10.4 µM, the TGI [50] was 24 µM and the TGI [51] was 5.28 µM. The TGI [52] was 14.8 µM, the TGI [53] was 5.71 µM and the TGI [54] was 26.5 µM. The TGI [55] was 3.18 µM and the TGI [56] was 4.09 µM.
`COc1cc(-c2nc3ccc(N4CCN(C)CC4)cc3[nH]2)c(OC)c2[nH]c(CO)nc12` was tested, and the TGI [1] was > 100 µM, the TGI [2] was > 100 µM and the TGI [57] was > 100 µM. For the same compound, the TGI [3] was > 100 µM, the TGI [4] was > 100 µM and the TGI [5] was > 100 µM. The TGI [6] was > 100 µM, the TGI [7] was > 100 µM and the TGI [8] was > 100 µM. The TGI [9] was > 100 µM, the TGI [10] was > 100 µM and the TGI [11] was > 100 µM. For the same compound, the TGI [12] was > 100 µM, the TGI [13] was > 100 µM and the TGI [14] was > 100 µM. The TGI [15] was > 100 µM, the TGI [16] was > 100 µM and the TGI [17] was > 100 µM. The TGI [58] was > 100 µM, the TGI [18] was > 100 µM and the TGI [19] was > 100 µM. The TGI [20] was > 100 µM, the TGI [21] was > 100 µM and the TGI [22] was > 100 µM. The TGI [23] was > 100 µM, the TGI [24] was > 100 µM and the TGI [25] was > 100 µM. The TGI [26] was > 100 µM, the TGI [27] was > 100 µM and the TGI [28] was > 100 µM. For the same compound, the TGI [29] was > 100 µM, the TGI [30] was > 100 µM and the TGI [31] was > 100 µM. The TGI [32] was > 100 µM, the TGI [33] was > 100 µM and the TGI [34] was > 100 µM. For the same compound, the TGI [35] was > 100 µM, the TGI [36] was > 100 µM and the TGI [37] was > 100 µM. For the same compound, the TGI [38] was > 100 µM, the TGI [39] was 37.2 µM and the TGI [40] was > 100 µM. The TGI [41] was > 100 µM, the TGI [42] was > 100 µM and the TGI [43] was > 100 µM. For the same compound, the TGI [44] was > 100 µM, the TGI [45] was > 100 µM and the TGI [46] was > 100 µM. The TGI [59] was > 100 µM, the TGI [47] was > 100 µM and the TGI [48] was > 100 µM. The TGI [49] was > 100 µM, the TGI [50] was > 100 µM and the TGI [51] was > 100 µM. For the same compound, the TGI [52] was > 100 µM, the TGI [54] was > 100 µM and the TGI [55] was 44.5 µM. For the same compound, the TGI [56] was > 100 µM.
`C[N+](C)(CCNc1ccc(NCC[N+](C)(C)Cc2ccc([N+](=O)[O-])cc2)c2c1C(=O)c1ccccc1C2=O)Cc1ccc([N+](=O)[O-])cc1` was tested, and the TGI [1] was > 100 µM, the TGI [2] was > 100 µM and the TGI [57] was > 100 µM. For the same compound, the TGI [3] was > 100 µM, the TGI [4] was > 100 µM and the TGI [5] was > 100 µM. The TGI [6] was > 100 µM, the TGI [7] was > 100 µM and the TGI [8] was > 100 µM. For the same compound, the TGI [9] was > 100 µM, the TGI [10] was > 100 µM and the TGI [11] was > 100 µM. For the same compound, the TGI [12] was > 100 µM, the TGI [13] was > 100 µM and the TGI [14] was > 100 µM. The TGI [15] was > 100 µM, the TGI [17] was > 100 µM and the TGI [58] was > 100 µM. The TGI [18] was > 100 µM, the TGI [19] was > 100 µM and the TGI [20] was > 100 µM. The TGI [21] was > 100 µM, the TGI [22] was > 100 µM and the TGI [23] was > 100 µM. For the same compound, the TGI [24] was > 100 µM, the TGI [25] was > 100 µM and the TGI [26] was > 100 µM. For the same compound, the TGI [27] was > 100 µM, the TGI [28] was > 100 µM and the TGI [29] was > 100 µM. For the same compound, the TGI [30] was > 100 µM, the TGI [31] was > 100 µM and the TGI [32] was > 100 µM. For the same compound, the TGI [33] was > 100 µM, the TGI [34] was > 100 µM and the TGI [35] was > 100 µM. For the same compound, the TGI [36] was > 100 µM, the TGI [37] was > 100 µM and the TGI [38] was > 100 µM. The TGI [39] was > 100 µM, the TGI [40] was > 100 µM and the TGI [41] was > 100 µM. For the same compound, the TGI [42] was > 100 µM, the TGI [43] was > 100 µM and the TGI [44] was > 100 µM. The TGI [45] was > 100 µM, the TGI [46] was > 100 µM and the TGI [47] was > 100 µM. For the same compound, the TGI [49] was > 100 µM, the TGI [50] was > 100 µM and the TGI [51] was > 100 µM. The TGI [52] was > 100 µM, the TGI [53] was > 100 µM and the TGI [54] was > 100 µM. The TGI [55] was > 100 µM and the TGI [56] was > 100 µM.
